Literature values in patent US9907807B2, “Topical pharmaceutical compositions” (Almirall, S.A., priority 2010, dated 2018).

Q: Which “solubility in ethyl alcohol” value (ethyl alcohol) does the source give for `C[C@@H]1C[C@H]2[C@@H]3CCC4=CC(=O)C=C[C@]4(C)[C@@]3(Cl)[C@@H](O)C[C@]2(C)[C@@]1(OC(=O)c1ccco1)C(=O)CCl` [Mometasone furoate, 9α,21-dichloro-11β,17-dihydroxy-16α-methylpregna-1,4-diene-3,20-dione 17-(2-furoate)] here?
A: The value was “moderately soluble”.

Q: And the solubility in octanol (octanol)?
A: The solubility in octanol was “slightly soluble”.

Q: What about the solubility in water (water) of the same molecule?
A: Its solubility in water is “insoluble”.
